Experimental data published in patent publication US8846761B2, “Method for treating pancreatitis” (Michigan Life Therapeutics, LLC, priority 2010, dated 2014).
Read-outs that look alike come from different tables or passages of the source.

Key:
[1] = tested on: patients having TG levels >500 mg/dL; assay: Randomized, double-blind, placebo-controlled study of gemcabene, subset of patients entering with TG >500 mg/dL; format: in vivo, human; conditions: for ApoA-I average % increase / ApoB average % decrease / ApoC-III average % decrease / HDL-C average % increase / VLDL-C average % decrease / hs-CRP average % decrease / Triglycerides average % decrease: patients TG >500 mg/dL; for Triglycerides average % decrease: once daily for 12 weeks, serum, change from baseline
Experimental: A randomized, double-blind, placebo-controlled study was conducted to evaluate the efficacy and tolerability of gemcabene in patients with HDL cholesterol levels <35 mg/dL. Patients were stratified based on whether mean serum triglyceride (TG) levels were <200 mg/dL or ≧200 mg/dL. Within each TG stratum, patients were randomized to receive either 150, 300, 600 or 900 mg of gemcabene, or placebo, once daily for 12 weeks.
Patients were evaluated for percent change from baseline levels of serum HDL cholesterol, serum LDL cholesterol, TG, apolipoproteins A-I, A-II, B, C-III, and E, hs CRP and non-HDL cholesterol levels. Blood samples were measured at screening, randomization and at −8, −4, −2 weeks, baseline, and 2, 4, and 12 weeks after the start of study medication. In addition, HDL-C, LDL-C and TG levels were measured at 2 and 4 weeks before starting study medication. Bays H. E. et al. Am J Cardiol (2003) vol.
When the data were examined for the subset of patients entering the study having TG levels greater than 500 mg/dL, an unexpectedly large decrease in TG levels for those patients treated with gemcabene was seen as compared with the broader group of patients having triglyceride levels ≧200 mg/dL. Twenty-seven patients having TG levels >500 mg/dL were evaluated in the study.
FIGS. 2a-e, 3a-e, 4a-e, 5a-e, 6a-e, 7a-e and 8a-e are graphs illustrating the serum levels of TG, HDL-C, ApoA-I, ApoC-III, VLDL-C, hs CRP, and ApoB for individual patients at baseline and at 12 weeks post treatment with doses of 150, 300, 600, and 900 mg/day of gemcabene, or placebo.
Tables 1-7 provide the data expressed as average percent and mean percent decrease or increase, as appropriate, for each of these parameters at each of the doses tested.

[2] = tested on: patient with triglyceride level of 1030 mg/dl; assay: Example 5: patient with triglyceride level of 1030 mg/dl treated with gemcabene; format: in vivo, human; conditions: 300 mg once per day plus low fat diet, 12-week follow-up, initial 1030 mg/dl
Experimental: A patient, as part of a routine annual examination, has blood tests which reveal that the patient has an LDL-C level of 200 mg/dl and a triglyceride level of 1030 mg/dl. This high triglyceride level places them at high risk for developing pancreatitis. According to the […] guidelines, the patient's treatment is initially targeted to address the high triglyceride level. The patient is administered gemcabene at a dose of 300 mg once per day and is placed on a low fat diet.

[3] = tested on: patients having triglyceride levels ≧200 mg/dL; conditions: data reported in Bays et al., cited from earlier work
CYP3A4 [4] = target: T1, CYP3A4 (Homo sapiens, UniProt P08684); conditions: cited from earlier work
T1 sequence (P08684 whole entry): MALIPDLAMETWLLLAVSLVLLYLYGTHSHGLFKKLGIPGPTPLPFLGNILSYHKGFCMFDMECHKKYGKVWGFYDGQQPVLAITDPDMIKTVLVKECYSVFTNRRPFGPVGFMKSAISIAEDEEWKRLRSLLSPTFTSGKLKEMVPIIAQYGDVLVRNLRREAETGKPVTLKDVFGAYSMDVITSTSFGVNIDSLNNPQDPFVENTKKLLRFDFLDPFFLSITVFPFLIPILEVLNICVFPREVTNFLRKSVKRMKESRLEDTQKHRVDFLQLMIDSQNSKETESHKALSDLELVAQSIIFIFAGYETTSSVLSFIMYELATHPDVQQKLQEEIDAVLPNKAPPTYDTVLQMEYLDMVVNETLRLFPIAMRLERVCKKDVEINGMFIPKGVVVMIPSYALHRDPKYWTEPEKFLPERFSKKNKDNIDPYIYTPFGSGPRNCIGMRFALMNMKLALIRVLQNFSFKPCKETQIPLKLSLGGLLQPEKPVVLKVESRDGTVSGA

CYP3A4 [5] = target: T1, CYP3A4; conditions: simvastatin (a CYP3A4 substrate); cited from earlier work

CC(C)(CCCCOCCCCC(C)(C)C(=O)O)C(=O)O [Gemcabene, 6,6′-oxybis-(2,2′-dimethylhexanoic acid)]
ApoA-I average % increase ([1]; 150 mg/day, 12 weeks): 9.27% | ApoB average % decrease ([1]; 150 mg/day, 12 weeks): −16.15% | ApoC-III average % decrease ([1]; 150 mg/day, 12 weeks): 36.95% | HDL-C average % increase ([1]; 150 mg/day, 12 weeks): 32.59% | VLDL-C average % decrease ([1]; 150 mg/day, 12 weeks): 48.50% | hs-CRP average % decrease ([1]; 150 mg/day, 12 weeks): −4.02% | Triglycerides average % decrease ([1]; 150 mg/day): 52.09% | Triglycerides average % decrease ([1]; 150 mg/day, listed as gemcabene): 52% | ApoA-I average % increase ([1]; 300 mg/day, 12 weeks): −6.17% | ApoB average % decrease ([1]; 300 mg/day, 12 weeks): 1.25% | ApoC-III average % decrease ([1]; 300 mg/day, 12 weeks): 49.41% | HDL-C average % increase ([1]; 300 mg/day, 12 weeks): 11.69% | VLDL-C average % decrease ([1]; 300 mg/day, 12 weeks): 51.86% | hs-CRP average % decrease ([1]; 300 mg/day, 12 weeks): −429.19% | Triglycerides average % decrease ([1]; 300 mg/day): 61.18% | Triglycerides average % decrease ([1]; 300 mg/day, listed as gemcabene): 61% | ApoA-I average % increase ([1]; 600 mg/day, 12 weeks): −3.31% | ApoB average % decrease ([1]; 600 mg/day, 12 weeks): −3.70% | ApoC-III average % decrease ([1]; 600 mg/day, 12 weeks): 30.89% | HDL-C average % increase ([1]; 600 mg/day, 12 weeks): −4.02% | VLDL-C average % decrease ([1]; 600 mg/day, 12 weeks): 28.73% | hs-CRP average % decrease ([1]; 600 mg/day, 12 weeks): 33.50% | Triglycerides average % decrease ([1]; 600 mg/day): 36.44% | ApoA-I average % increase ([1]; 900 mg/day, 12 weeks): 0.47% | ApoB average % decrease ([1]; 900 mg/day, 12 weeks): 2.26% | ApoC-III average % decrease ([1]; 900 mg/day, 12 weeks): 20.36% | HDL-C average % increase ([1]; 900 mg/day, 12 weeks): 1.03% | VLDL-C average % decrease ([1]; 900 mg/day, 12 weeks): 17.10% | hs-CRP average % decrease ([1]; 900 mg/day, 12 weeks): 66.64% | Triglycerides average % decrease ([1]; 900 mg/day): 0.90% | increase in HDL-C levels ([1]; one patient (FIG. 1), 150 mg/day, 12 weeks): 27% | serum triglyceride level after treatment ([1]; one patient (FIG. 1), 150 mg/day, 12 weeks post-treatment, TG 550 mg/dL at initiation): 210 mg/dL | fall in triglyceride level ([1]; one patient (FIG. 1), 150 mg/day, 12 weeks, TG 550 mg/dL at initiation): 62% | triglyceride level at follow-up [2]: 363 mg/dL | reduction in triglyceride levels ([3]; 150 mg dose): 26.6% | reduction in triglyceride levels ([3]; 300 mg dose): 38.9% | inhibition of CYP3A4 (CYP3A4 [4]): low level of inhibition | effect in drug-drug interaction study with simvastatin (CYP3A4 [5]): no clinically relevant effect
